Molecules are shown by their SMILES. Where two headings read alike, the source gives them in different places.

The term CC50 denotes the concentration at which the toxic effect on the cells reaches its halfway point. Read a low CC50 as harm at low concentration. One may read the EC50 as the concentration needed to bring the measured effect to its halfway point. As usually defined, the EC90 is the point of the concentration-response curve where the effect stands at 90%. As a reminder, the IC50 is the midpoint of a concentration-inhibition curve. Read a high IC50 as lower potency.

The nature of data set [1]: Evaluation of cell viability (MTS) in HepG2 2.2.15 cells. To be noted: human. The class given is cell-based, human. The method, then:
(§1) The HepG2 2.2.15 cell line is a stable human hepatoblastoma cell line that contains two copies of the HBV wild-type strain ayw1 genome and constitutively produces high levels of HBV. Cells were sub-cultured twice a week in Dulbecco's Modified Eagle's Medium (DMEM) supplemented with 10% FBS, 380 μg/mL G418, 2.0 mM L-Glutamine, 100 units/mL Penicillin, and 100 μg/mL Streptomycin. Total cell number and percent viability determinations were performed using a hemacytometer and trypan blue dye exclusion prior to each experiment set-up. Cell viability was always greater than 95% for experiment set-ups.
(§2) At experiment conclusion, MTS reagent (CellTiter®96 Reagent, Promega) reagent was added to culture wells (96 well microtiter plates) and permitted to incubate with cells for 2-4 hours at 37° C., 5% CO2. Each cell culture well was measured for MTS reagent reduction (color change, 490/650 nm) using a SpectraMax i3 plate reader (Molecular Devices).

Data set [2] deals with HBV in HepG2 2.2.15 cells. The experiment in a line: HepG2 2.2.15 cell-based HBV replication assay (HBV virus yield, extracellular HBV DNA by real-time PCR). Also on record: species or system HBV wild-type strain ayw1. To be noted: for EC50 / EC90: Hepatitis B virus. The method, then: The HepG2 2.2.15 cell line is a stable human hepatoblastoma cell line that contains two copies of the HBV wild-type strain ayw1 genome and constitutively produces high levels of HBV. Cells were sub-cultured twice a week in Dulbecco's Modified Eagle's Medium (DMEM) supplemented with 10% FBS, 380 μg/mL G418, 2.0 mM L-Glutamine, 100 units/mL Penicillin, and 100 μg/mL Streptomycin. Total cell number and percent viability determinations were performed using a hemacytometer and trypan blue dye exclusion prior to each experiment set-up.
The primary anti-HBV assay was performed as previously described (Korba and Milman (1991) Antiviral Res. 15: 217-228; Korba and Gerin (1992) Antiviral Res. 19: 55-70) with modifications to use real-time PCR (TaqMan-based) to measure extracellular HBV DNA virion-associated released from HepG2 2.2.15 cells. Antiviral compounds blocking any late step of viral replication such as transcription, translation, pre-genome encapsidation, reverse transcription, particle assembly and release can be identified and characterized using this cell line. Briefly, HepG2 2.2.15 cells were seeded in 96-well microtiter plates at 1.5×10^4 cells/well in Dulbecco's Modified Eagle's Medium supplemented with 2% FBS, 2.0 mM L-Glutamine, 100 units/mL Penicillin, and 100 μg/mL Streptomycin. […] Three days post treatment with test article (DPV), cell culture medium was replaced with fresh medium containing the appropriately diluted test compounds. Six days following the initial administration of the test compounds, the cell culture supernatant was collected, treated with pronase and then used in a real-time TaqMan-based PCR assay. The PCR-amplified HBV DNA was detected by measuring fluorescent signal resulting from the exonucleolytic degradation of a quenched fluorescent probe molecule that hybridizes to the amplified HBV DNA.
(In general: Real-time PCR tracks product formation cycle by cycle.)

The nature of data set [3]: Cytotoxicity (TC50) in Vero cells. The class given is cell-based. To be noted: African green monkey, Table 2.
The next data set concerns HSV-1 Strain HF. The experiment in a line: Antiviral activity against HSV-1 Strain HF in Vero cells. The class given is cell-based.
In the next data set the test system is HepG2 2.2.15 cells. The experiment in a line: Evaluation of cell viability (MTS) in HepG2 2.2.15 cells. The class given is cell-based, human. To be noted: Table 3; HBV virus yield assay. How it is done: as §1, §2
Setting [4] is: HepG2 2.2.15, Table 1, HBV in HepG2 2.2.15 cells, read-out: EC50.
Setting [5] is: HepG2 2.2.15, Table 3, HBV virus yield assay, read-out: EC50.
Where [6] appears, read: Table 1, HBV in HepG2 2.2.15 cells, read-out: EC90.
Setting [7] is: Table 1, HBV in HepG2 2.2.15 cells.
Setting [8] is: HepG2 2.2.15 cells, Table 3, HBV virus yield assay.
Setting [9] is: HepG2 2.2.15, Table 3, HBV virus yield assay, read-out: EC90.

Regarding `CC(C)OC(=O)[C@H](C)NP(=O)(OC[C@H]1O[C@@H](n2ccc3c(N)nc(Cl)nc32)[C@@H](F)[C@@H]1O)Oc1ccccc1` (mixture of isomers) [Compound 9b, isopropyl ((((2R,3R,4S,5R)-5-(4-amino-2-chloro-7H-pyrrolo[2,3-d]pyrimidin-7-yl)-4-fluoro-3-hydroxytetrahydrofuran-2-yl)methoxy)(phenoxy)phosphoryl)-L-alaninate], the CC50 in data set [1] (Table 3, HBV virus yield assay) was more than 10 µM. In addition, in data set [2] (HepG2 2.2.15), it took 0.09 µM to reach a half-maximal effect (EC50) and it took 1.05 µM to reach the 90% level (EC90).
Regarding `CCOC(=O)[C@H](C)NP(=O)(OC[C@H]1O[C@@H](n2ccc3c(N)nc(Cl)nc32)[C@@H](F)[C@@H]1O)Oc1ccccc1` (mixture of isomers) [Compound 9e, ethyl ((((2R,3R,4S,5R)-5-(4-amino-2-chloro-7H-pyrrolo[2,3-d]pyrimidin-7-yl)-4-fluoro-3-hydroxytetrahydro-furan-2-yl)methoxy)-(phenoxy)phosphoryl)-L-alaninate], in data set [1] (Table 3, HBV virus yield assay), the CC50 is more than 10 µM. In data set [2] (HepG2 2.2.15), this compound showed a half-maximal effective concentration (EC50) of 0.14 µM and an EC90 of more than 10 µM.
The compound `C[C@H](NP(=O)(OC[C@H]1O[C@@H](n2ccc3c(N)nc(Cl)nc32)C(F)C1O)Oc1ccccc1)C(=O)OCc1ccccc1` (single isomer, unassigned) [Compound 9c] had a CC50 in data set [1] (Table 3, HBV virus yield assay) of more than 10 µM. For the same compound, in data set [2] (HepG2 2.2.15), the EC50 came out at 0.24 µM and the EC90 was more than 10 µM.
In turn, `CC(C)COC(=O)[C@H](C)NP(=O)(OC[C@H]1O[C@@H](n2ccc3c(N)nc(Cl)nc32)[C@@H](F)[C@@H]1O)Oc1ccccc1` (single isomer, unassigned) [Compound 9d] displayed a CC50 in data set [1] (Table 3, HBV virus yield assay) of more than 10 µM. For the same compound, in data set [2] (HepG2 2.2.15), the EC50 was found to be 0.3 µM and the EC90 is more than 10 µM.
`COC(=O)[C@H](C)NP(=O)(OC[C@H]1O[C@@H](n2ccc3c(N)nc(Cl)nc32)[C@@H](F)[C@@H]1O)Oc1ccccc1` (single isomer, unassigned) [Compound 9f]: the CC50 in data set [1] (Table 3, HBV virus yield assay) was more than 10 µM. In data set [2] (HepG2 2.2.15), this compound displayed an EC50 of 0.24 µM and an EC90 of more than 10 µM.
As to `Nc1nc2c(ncn2COCCO)c(=O)[nH]1` [Acyclovir, acyclovir, reference compound], the CC50 in data set [3] is more than 100 µM. For the same compound, in the data set on HSV-1 Strain HF (Table 2), the IC50 amounted to 11.4 µM and the “Selectivity Index (SI50) (TC50/IC50)” value is recorded as more than 8.77.
Take `Nc1ccn([C@@H]2CS[C@H](CO)O2)c(=O)n1` [Compound 3TC, Lamivudine, reference compound]: the CC50 in data set [1] (Table 1, HepG2 2.2.15 cells) is more than 2 µM; with HepG2 2.2.15 cells, more than 2 µM. The EC50 in data set [2] (setting [4]) and in data set [2] (setting [5]) was 0.029 µM in each case. In data set [2] (setting [6]), the EC90 is 0.511 µM.
In the case of `Nc1nc(Cl)nc2c1ccn2[C@@H]1O[C@H](CO)[C@@H](O)[C@@H]1F` [Compound 5, (2R,3R,4S,5R)-5-(4-amino-2-chloro-7H-pyrrolo[2,3-d]pyrimidin-7-yl)-4-fluoro-2-(hydroxymethyl)tetrahydrofuran-3-ol], the CC50 is more than 10 µM in data set [3]; more than 10 µM in data set [1] (Table 1, HepG2 2.2.15 cells); more than 10 µM in the data set on HepG2 2.2.15 cells. The same compound gave an IC50 with HSV-1 Strain HF (Human alphaherpesvirus 1, Table 2) of 0.65 µM. Moreover, the “Selectivity Index (SI50) (TC50/IC50)” value with HSV-1 Strain HF (Table 2) is more than 15.4. Besides, the EC50 in data set [2] (setting [4]) was found to be 0.07 µM; in data set [2] (setting [5]), 0.06 µM. Moreover, the EC90 in data set [2] (setting [6]) was found to be 1.28 µM. The Activity result in data set [2] (setting [7]) is reported as “Hi”. The “Selectivity Index (SI50) (CC50/EC50)” value in data set [2] (setting [7]) was more than 167.
In the case of `CCC(CC)COC(=O)[C@H](C)NP(=O)(OC[C@H]1O[C@@H](n2ccc3c(N)nc(Cl)nc32)[C@@H](F)[C@@H]1O)Oc1ccccc1` (stereo partly drawn) [Compound 9a, 2-ethylbutyl ((((2R,3R,4S,5R)-5-(4-amino-2-chloro-7H-pyrrolo[2,3-d]pyrimidin-7-yl)-4-fluoro-3-hydroxytetrahydrofuran-2-yl)methoxy)(phenoxy)phosphoryl)-L-alaninate], in data set [1] (Table 3, HBV virus yield assay), the CC50 was more than 10 µM. Further, in data set [2] (HepG2 2.2.15), the midpoint of the response, the EC50, lay at 0.16 µM and the 90% effect level (EC90) was put at 1.58 µM.
On to `CCCCCCCCCCCC(=O)Nc1nc(Cl)nc2c1ccn2[C@@H]1O[C@H](CO)[C@@H](O)[C@@H]1F` [Compound 12a, N-(2-chloro-7-((2R,3S,4R,5R)-3-fluoro-4-hydroxy-5-(hydroxymethyl)tetrahydrofuran-2-yl)-7H-pyrrolo[2,3-d]pyrimidin-4-yl)dodecanamide], for which the CC50 in data set [1] (setting [8]) was more than 10 µM. Moreover, in data set [2] (setting [5]), the EC50 amounted to 0.08 µM. For the same compound, in data set [2] (setting [9]), the EC90 amounted to 0.95 µM.
For `CCCCCCCC/C=C\CCCCCCCC(=O)Nc1nc(Cl)nc2c1ccn2[C@@H]1O[C@H](CO)[C@@H](O)[C@@H]1F` [Compound 12b, N-(2-chloro-7-((2R,3S,4R,5R)-3-fluoro-4-hydroxy-5-(hydroxymethyl)tetrahydrofuran-2-yl)-7H-pyrrolo[2,3-d]-pyrimidin-4-yl)oleamide], in that order: more than 10 µM, 0.13 µM and more than 10 µM.
In turn, `CCCCCCCCCCCCCCCCCC(=O)Nc1nc(Cl)nc2c1ccn2[C@@H]1O[C@H](CO)[C@@H](O)[C@@H]1F` [Compound 12c, N-(2-chloro-7-((2R,3S,4R,5R)-3-fluoro-4-hydroxy-5-(hydroxymethyl)tetrahydrofuran-2-yl)-7H-pyrrolo[2,3-d]pyrimidin-4-yl)stearamide] returned a CC50 in data set [1] (setting [8]) of more than 10 µM. The EC50 in data set [2] (setting [5]) stood at 0.53 µM. The EC90 in data set [2] (setting [9]) is more than 10 µM.
The compound `CCCC(CCC)C(=O)Nc1nc(Cl)nc2c1ccn2[C@@H]1O[C@H](CO)[C@@H](O)[C@@H]1F` [Compound 12d, N-(2-chloro-7-((2R,3S,4R,5R)-3-fluoro-4-hydroxy-5-(hydroxymethyl)tetrahydrofuran-2-yl)-7H-pyrrolo[2,3-d]pyrimidin-4-yl)-2-propylpentanamide] returned a CC50 in data set [1] (setting [8]) of more than 10 µM. The EC50 in data set [2] (setting [5]) came out at 2.12 µM. Further, the EC90 in data set [2] (setting [9]) is more than 10 µM.

The values are drawn from patent US20220251134A1, “2,4,7-SUBSTITUTED-7-DEAZA-2'-DEOXY-2'-FLUOROARABINOSYL NUCLEOSIDE AND NUCLEOTIDE PRO-DRUGS AND USES THEREOF” (Southern Research Institute, priority 2019, published 2022).
